Measurements taken from the NIST ThermoML archive (doi:10.1016/j.fluid.2019.01.011).
Numbers after ± are expanded uncertainties.

Details: Crystal; DSC

Structure (SMILES): [Cl-].[Cs+] [cesium chloride]
- Triple point temperature: 918 ± 10 K

Structure (SMILES): [Cl-].[Cl-].[Zn+2] [zinc chloride]
- Triple point temperature: 587 ± 10 K
